Test results published in patent US20240041023A1, “COMPOSITION AND METHOD OF PRESERVING VIABILITY OF CELL IN A LOW TEMPERATURE” (THE UNITED STATES OF AMERICA, AS REPRESENTED BY THE …, priority 2020, published 2024).
Entries after “also recorded” stand apart in the source; their conditions may differ.

Experiments:
mouse pancreatic islets = test: Cold survival of mouse pancreatic islets in preservation solutions; format: cell-based; details: N-EM added into UW solution, 2-D08 or ginkgolic acid added into HS solution
Experimental: (§1) N-EM and protease inhibitors are added into HS to make HS+.

FOXO1 [1] = test: FOXO1-dependent survival pathway and FOXO1 nuclear entry in cold stored mouse islets; format: cell-based; details: mouse pancreatic islets; inhibitor added to HS solution
Experimental: as §1

FOXO1 [2] = test: FOXO1 nuclear entry in corneal endothelial cells after anterior chamber injection (immunofluorescence); format: in vivo, rat; details: 6-month-old rats
[3] = system: rat corneal endothelial cells; test: Cold preservation of rat cornea: endothelial cell mortality (PI positive cells) and immunofluorescence staining; format: cell-based; details: 6-month-old rat cornea
Experimental: After injection of 0.5 μL C6 solution (10 μM/μL in goat serum solvent) into the anterior chamber of the eye through the limbal stroma. After 90 minutes, the cornea was taken and cold stored in a corneal preservation solution. After cold storage for 3 weeks and 4 weeks, the cold storage results were evaluated by immunofluorescence staining.
The corneal preservation solution of this example is the novel corneal preservation solution prepared in Example 3, with 20 μM C6 and the protease inhibitor mixture Pi (as described in WO2019/040359A1) added, and the final concentrations of the components in the protease inhibitor mixture Pi in the cold preservation solution are respectively: pepstatin 1 μM; leupeptin 2 μM; bestatin 5 μM; […] 0.5 μM; aprotinin 0.08 μM; AEBSF 100 μM.
0.5 μL of Apigenin solution (concentration 4 μM/μL, in goat serum solvent) was injected into the anterior chamber through the limbal stroma, and 20 minutes later, the cornea was removed and stored in the novel preservation solution prepared in Example 3 (with 4 μM Apigenin and Pi previously added). After cold storage for 3 weeks and 4 weeks, the cold storage results were evaluated by immunofluorescence staining.

mice pancreatic islets = test: Mouse pancreatic islets stored at 4° C. versus 1640 culture solution; format: cell-based; details: mice pancreatic islets stored at 4° C.; C6 and Apigenin added to the novel preservation solution (MM)
Experimental: In another example, mice pancreatic islets were extracted and stored at 4° C. in cold storage. The conventional 1640 culture solution which is commonly used is used as a control group.

human islets = test: Cold storage of human islets; format: cell-based; details: prolonged cold storage
[4] = after anterior chamber injection (C6 20 μM/μL, Apigenin 4 μM/μL, goat serum solvent), before cold stimulation
[5] = after anterior chamber injection and cold stimulation

Row | Compound | islet cold survival / islet cell death (mouse pancreatic islets) | cold-induced FOXO1 nuclear entry (FOXO1 [1]) | FOXO1 nucleus entry in corneal endothelial cells (FOXO1 [2]; [4]) | FOXO1 nucleus entry in corneal endothelial cells (FOXO1 [2]; [5]) | corneal endothelial cell death, in words ([3]; cold preservation 3 weeks) | islet cell death (mice pancreatic islets) | other results
1 | O=c1cc(-c2ccc(O)c(O)c2O)oc2ccccc12 [2-D08] | islet cell death became severe | repressed |  |  |  |  | 
2 | O=c1cc(-c2ccc(O)cc2)oc2cc(O)cc(O)c12 [Apigenin] |  |  | did not cause FOXO1 to enter nucleus | activated FOXO1 to enter the nucleus | decreased mortality | further reduced the number of dead cells | FOXO1 nucleus entry in corneal endothelial cells (FOXO1 [2]; after cold stimulation and rewarming): weak nuclear entering effect is still maintained; corneal endothelial cell death, in words ([3]; cold storage 4 weeks): significantly reduced; corneal endothelium structure (hexagonal structure, F-actin, nuclei) ([3]; cold storage 4 weeks (28 days, 4° C.)): largely intact endothelium
3 | CCCCCCCCCCCCC/C=C/[C@@H](O)[C@H](CO)NC(=O)CCCCC [C6, C6 ceramide] |  |  | activate FOXO1 nucleus entry | nucleus entry signal was enhanced | reduction in the number of dead corneal endothelial cells | further reduced the number of dead cells | 
4 | CCN1C(=O)C=CC1=O [N-Ethylmaleimide] | enables longer term cold storage; also recorded: islet cold survival is improved |  |  |  |  |  | outcome of cold storage of human islets (human islets): enables longer term cold storage
5 | ginkgolic acid | islet cell death became severe | repressed |  |  |  |  | 
